Assay results reported in ChEMBL document CHEMBL5120920, “A Mitochondria-Targeted Phenylbutyric Acid Prodrug Confers Drastically Improved Anticancer Activities” (J Med Chem, 2022).
Active and inactive are the calls of the source. The rule behind the calls is not given here.

What was measured:
MDA-MB-231 = assay: Antiproliferative activity against human MDA-MB-231 cells assessed as inhibition of cell viability incubated for 72 hrs by MTT assay; assay type: functional, cell-based; details: MDA-MB-231, 72 h
A549 = assay: Antiproliferative activity against human A549 cells assessed as inhibition of cell viability incubated for 72 hrs by MTT assay; assay type: functional, cell-based; details: A549, 72 h
MCF7 = assay: Antiproliferative activity against human MCF7 cells assessed as inhibition of cell viability incubated for 72 hrs by MTT assay; assay type: functional, cell-based; details: MCF7, 72 h
A-375 [1] = assay: Antiproliferative activity against human A-375 cells assessed as inhibition of cell viability incubated for 72 hrs by MTT assay; assay type: functional, cell-based; details: A-375, 72 h
A-375 [2] = assay: Induction of cell cycle arrest in human A-375 cells assessed as accumulation at G2 phase at 10 uM incubated for 24 hrs by PI staining based flow cytometry analysis (reference value: 7.92 %); assay type: functional
A-375 [3] = assay: Induction of cell cycle arrest in human A-375 cells assessed as accumulation at G1 phase at 10 uM incubated for 24 hrs by PI staining based flow cytometry analysis (reference value: 68.07 %); assay type: functional
A-375 [4] = assay: Induction of cell cycle arrest in human A-375 cells assessed as accumulation at S phase at 10 uM incubated for 24 hrs by PI staining based flow cytometry analysis (reference value: 24.01 %); assay type: functional
A-375 [5] = assay: Inhibition of glycolysis in human A-375 cells assessed as reduction in extracellular acidification rate at 5 mM measured after 4 hrs; assay type: functional, cell-based
A-375 [6] = assay: Induction of cell cycle arrest in human A-375 cells assessed as accumulation at S phase at 10 mM incubated for 24 hrs by PI staining based flow cytometry analysis (reference value: 24.01 %); assay type: functional
[7] = Apparent permeability across apical to basolateral side in human Caco-2 cells at 2 uM measured after 2 hrs by LC-MS/MS analysis; assay type: ADME, cell-based
[8] = Efflux ratio of apparent permeability from basolateral to apical side over apical to basolateral side in human Caco2 cells by LC-MS/MS analysis; assay type: ADME, cell-based; details: Caco-2
A-375 [9] = assay: Effect on mitochondrial bio-energestics in human A-375 cells assessed as increase in OCR/ECRA ratio at 5 mM measured after 4 hrs; assay type: functional, cell-based
[10] = Apparent permeability across basolateral to apical side in human Caco-2 cells at 2 uM measured after 2 hrs by LC-MS/MS analysis; assay type: ADME, cell-based
A-375 [11] = assay: Induction of cell cycle arrest in human A-375 cells assessed as accumulation at G1 phase at 10 mM incubated for 24 hrs by PI staining based flow cytometry analysis (reference value: 68.07 %); assay type: functional
A-375 [12] = assay: Induction of cell cycle arrest in human A-375 cells assessed as accumulation at G2 phase at 10 mM incubated for 24 hrs by PI staining based flow cytometry analysis (reference value: 7.92 %); assay type: functional
A-375 [13] = assay: Antitumor activity against human A-375 cells xenografted in nude mouse assessed as tumor inhibition ratio at 80 mg/kg, ip measured once every two days for 14 days; assay type: functional; details: A-375, 336 h, time 14 day, read-out: TGI
[14] = Toxicity in BALB/c mouse assessed as change in body weight at 20 mg/kg, iv measured once every two days for 7 days; assay type: organism-based; details: in vivo, 168 h, time 7 day
A-375 [15] = assay: Antitumor activity against human A-375 cells implanted in BALB/c mouse assessed as reduction in tumor weight at 20 mg/kg, ip measured once every two days for 14 days; assay type: functional, organism-based; details: time 14.0 day
A-375 [16] = assay: Antitumor activity against human A-375 cells implanted in BALB/c mouse assessed as shrinkage of tumor tissue at 20 mg/kg, ip measured once every two days for 14 days; assay type: functional, organism-based; details: time 14.0 day
A-375 [17] = assay: Antitumor activity against human A-375 cells implanted in BALB/c mouse assessed as suppression of tumor growth at 20 mg/kg, ip measured once every two days for 14 days; assay type: functional, organism-based; details: time 14.0 day
[18] = Cytotoxicity against HEK293T cells assessed as cell growth inhibition measured after 72 hrs by MTT assay; assay type: toxicity, cell-based, HEK-293T; details: human
[19] = Cytotoxicity against HUVEC assessed as cell growth inhibition measured after 72 hrs by MTT assay; assay type: toxicity, cell-based; details: human
[20] = Cytotoxicity against human HaCaT cells assessed as cell growth inhibition measured after 72 hrs by MTT assay; assay type: toxicity, cell-based
[21] = Cytotoxicity against human L02 cells assessed as cell growth inhibition measured after 72 hrs by MTT assay; assay type: toxicity, cell-based

Row | SMILES | IC50 (MDA-MB-231) | IC50 (A549) | IC50 (MCF7) | IC50 (A-375 [1]) | other results
1 | O=C(O)CCCCCCCCCCC[P+](c1ccccc1)(c1ccccc1)c1ccccc1 | > 20 µM | > 20 µM | > 20 µM | > 20 µM | –
2 | O=C(CCCc1ccccc1)NCC(CNC(=O)CCCc1ccccc1)(CNC(=O)CCCc1ccccc1)NC(=O)CC[P+](c1ccccc1)(c1ccccc1)c1ccccc1 | 9.64 µM | 5.3 µM | 3.34 µM | 5.05 µM | –
3 | O=C(CCCCC[P+](c1ccccc1)(c1ccccc1)c1ccccc1)NC(COC(=O)CCCc1ccccc1)(COC(=O)CCCc1ccccc1)COC(=O)CCCc1ccccc1 | 2.68 µM | 1.08 µM | 0.91 µM | 4.66 µM | –
4 | O=C(O)CCCCCCCCC[P+](c1ccc(C(F)(F)F)cc1)(c1ccc(C(F)(F)F)cc1)c1ccc(C(F)(F)F)cc1.[Br-] | > 20 µM | > 20 µM | > 20 µM | > 20 µM | Activity (A-375 [2]): 11.68%; Activity (A-375 [3]): 68.44%; Activity (A-375 [4]): 19.88%
5 | O=C(O)CCC[P+](c1ccccc1)(c1ccccc1)c1ccccc1 | > 20 µM | > 20 µM | > 20 µM | > 20 µM | –
6 | O=C(O)CCCCCCCCC[P+](c1ccccc1)(c1ccccc1)c1ccccc1 | > 20 µM | > 20 µM | > 20 µM | > 20 µM | –
7 | O=C(CCCc1ccccc1)NCC(CNC(=O)CCCc1ccccc1)(CNC(=O)CCCc1ccccc1)NC(=O)CCC[P+](c1ccccc1)(c1ccccc1)c1ccccc1 | 9.27 µM | 624 µM | 2.72 µM | 4.56 µM | –
8 | O=C(O)CCCc1ccccc1 | 11700 µM | 9750 µM | 10700 µM | 8940 µM | inhibition (A-375 [5]): Active; Activity (A-375 [6]): 7.4%; Papp A→B at 2 h, 2 µM [7]: < 0.48 ×10⁻⁶ cm/s; efflux ratio [8]: > 1.54; Activity (A-375 [9]): Active; Papp B→A at 2 h, 2 µM [10]: 0.74 ×10⁻⁶ cm/s; Activity (A-375 [11]): 87.33%; Activity (A-375 [12]): 5.38%; inhibition in vivo at 80 mg/kg (A-375 [13]): 10%
9 | COc1cccc([P+](CCCCCCCCCC(=O)O)(c2cccc(OC)c2)c2cccc(OC)c2)c1 | > 20 µM | > 20 µM | > 20 µM | > 20 µM | –
10 | O=C(O)CCCCC[P+](c1ccccc1)(c1ccccc1)c1ccccc1 | > 20 µM | > 20 µM | > 20 µM | > 20 µM | –
11 | O=C(O)CC[P+](c1ccccc1)(c1ccccc1)c1ccccc1 | > 20 µM | > 20 µM | > 20 µM | > 20 µM | –
12 | O=C(O)CCCC[P+](c1ccccc1)(c1ccccc1)c1ccccc1 | > 20 µM | > 20 µM | > 20 µM | > 20 µM | –
13 | O=C(CCCc1ccccc1)NCC(CNC(=O)CCCc1ccccc1)(CNC(=O)CCCc1ccccc1)NC(=O)CCCC[P+](c1ccccc1)(c1ccccc1)c1ccccc1 | 3.51 µM | 2.15 µM | 2.02 µM | 232 µM | –
14 | N#Cc1ccc([P+](CCCCCCCCCC(=O)NC(CNC(=O)CCCc2ccccc2)(CNC(=O)CCCc2ccccc2)CNC(=O)CCCc2ccccc2)(c2ccc(C#N)cc2)c2ccc(C#N)cc2)cc1 | 3.96 µM | 4.06 µM | 8.56 µM | > 10 µM | –
15 | O=C(O)CCCCCCC[P+](c1ccccc1)(c1ccccc1)c1ccccc1 | > 20 µM | > 20 µM | > 20 µM | > 20 µM | –
16 | CCCS(=O)(=O)Nc1ccc(F)c(C(=O)c2c[nH]c3ncc(-c4ccc(Cl)cc4)cc23)c1F [VEMURAFENIB] | – | – | – | – | Activity [14]: Non-Toxic; Activity (A-375 [15]): Active; Activity (A-375 [16]): Active; Activity (A-375 [17]): Active
17 | N#Cc1ccc([P+](CCCCCCCCCC(=O)O)(c2ccc(C#N)cc2)c2ccc(C#N)cc2)cc1 | > 20 µM | > 20 µM | > 20 µM | > 20 µM | –
18 | CCOC(=O)CCCc1ccccc1 | – | – | – | > 2000 µM | –
19 | COC(=O)CCCc1ccccc1 | – | – | – | > 2000 µM | –
20 | Cc1ccc([P+](CCCCCCCCCC(=O)O)(c2ccc(C)cc2)c2ccc(C)cc2)cc1 | > 20 µM | > 20 µM | > 20 µM | > 20 µM | –
21 | O=C(O)CCCCCCCCC[P+](c1ccc(F)cc1)(c1ccc(F)cc1)c1ccc(F)cc1 | > 20 µM | > 20 µM | > 20 µM | > 20 µM | –

The next lines start with results.

Row | IC50 (MDA-MB-231) | IC50 (A549) | IC50 (MCF7) | IC50 (A-375 [1]) | SMILES | other results
22 | 0.57 µM | 0.97 µM | 0.79 µM | 0.66 µM | COc1cccc([P+](CCCCCCCCCC(=O)NC(CNC(=O)CCCc2ccccc2)(CNC(=O)CCCc2ccccc2)CNC(=O)CCCc2ccccc2)(c2cccc(OC)c2)c2cccc(OC)c2)c1 | –
23 | 0.44 µM | 0.73 µM | 0.5 µM | 0.62 µM | Cc1ccc([P+](CCCCCCCCCC(=O)NC(CNC(=O)CCCc2ccccc2)(CNC(=O)CCCc2ccccc2)CNC(=O)CCCc2ccccc2)(c2ccc(C)cc2)c2ccc(C)cc2)cc1 | –
24 | 2.59 µM | 1.01 µM | 0.97 µM | 1.75 µM | O=C(CC[P+](c1ccccc1)(c1ccccc1)c1ccccc1)NC(COC(=O)CCCc1ccccc1)(COC(=O)CCCc1ccccc1)COC(=O)CCCc1ccccc1 | –
25 | 1.94 µM | 1.87 µM | 1.19 µM | 1.25 µM | CN(C)c1ccc([P+](CCCCCCCCCC(=O)O)(c2ccc(N(C)C)cc2)c2ccc(N(C)C)cc2)cc1 | –
26 | 1.57 µM | 1.03 µM | 0.64 µM | 2.79 µM | O=C(CCCC[P+](c1ccccc1)(c1ccccc1)c1ccccc1)NC(COC(=O)CCCc1ccccc1)(COC(=O)CCCc1ccccc1)COC(=O)CCCc1ccccc1 | –
27 | 0.24 µM | 0.57 µM | 0.44 µM | 0.36 µM | O=C(CCCc1ccccc1)NCC(CNC(=O)CCCc1ccccc1)(CNC(=O)CCCc1ccccc1)NC(=O)CCCCCCCCCCC[P+](c1ccccc1)(c1ccccc1)c1ccccc1 | –
28 | 2.19 µM | 2.11 µM | 1.91 µM | 1.98 µM | O=C(CCCc1ccccc1)NCC(CNC(=O)CCCc1ccccc1)(CNC(=O)CCCc1ccccc1)NC(=O)CCCCCCCCC[P+](c1ccc(C(F)(F)F)cc1)(c1ccc(C(F)(F)F)cc1)c1ccc(C(F)(F)F)cc1 | IC50 at 72 h [18]: > 20 µM; IC50 at 72 h [19]: > 20 µM; IC50 at 72 h [20]: > 20 µM; IC50 at 72 h [21]: > 20 µM
29 | 0.31 µM | 0.81 µM | 0.54 µM | 0.42 µM | O=C(CCCc1ccccc1)NCC(CNC(=O)CCCc1ccccc1)(CNC(=O)CCCc1ccccc1)NC(=O)CCCCCCCCC[P+](c1ccccc1)(c1ccccc1)c1ccccc1 | –
30 | 0.59 µM | 1.42 µM | 1.31 µM | 1.19 µM | O=C(CCCc1ccccc1)NCC(CNC(=O)CCCc1ccccc1)(CNC(=O)CCCc1ccccc1)NC(=O)CCCCCCC[P+](c1ccccc1)(c1ccccc1)c1ccccc1 | –
31 | 3.62 µM | 7.7 µM | 2.46 µM | 3.26 µM | O=C(CCCc1ccccc1)NCC(CNC(=O)CCCc1ccccc1)(CNC(=O)CCCc1ccccc1)NC(=O)CCCCC[P+](c1ccccc1)(c1ccccc1)c1ccccc1 | –
32 | 1.28 µM | 2.19 µM | 2.26 µM | 1.29 µM | O=C(CCCc1ccccc1)NCC(CNC(=O)CCCc1ccccc1)(CNC(=O)CCCc1ccccc1)NC(=O)CCCCCCCCC[P+](c1ccc(F)cc1)(c1ccc(F)cc1)c1ccc(F)cc1 | –
33 | 1.28 µM | 0.65 µM | 0.62 µM | 1.29 µM | O=C(CCC[P+](c1ccccc1)(c1ccccc1)c1ccccc1)NC(COC(=O)CCCc1ccccc1)(COC(=O)CCCc1ccccc1)COC(=O)CCCc1ccccc1 | –
34 | 0.47 µM | 0.42 µM | 0.4 µM | 0.33 µM | COc1cccc2c1C(=O)c1c(O)c3c(c(O)c1C2=O)C[C@@](O)(C(=O)CO)C[C@@H]3O[C@H]1C[C@H](N)[C@H](O)[C@H](C)O1 [DOXORUBICIN] | –
